Data: patent US20260324646A1, “BIOLOGICAL COMPOSITION FOR USE AGAINST PLANT FUNGICIDAL INFECTIONS” (UNIVERSITA' DEGLI STUDI DI MILANO, priority 2023, published 2026)

Assays:
[1] = tested on: Alternaria sp. and B. caroliniana; assay: In vitro growth inhibition of phytopathogenic fungi on PDA (radial growth rate, 12-day effect); type: cell-based, Alternaria sp.; Botrytis caroliniana; settings: for radial growth rate (Kr): PDA, 27±1° C.
Procedure: The phytopathogenic fungus Alternaria sp. was isolated in December 2021 from a vineyard in Oltrepo pavese (Santa Maria della Versa, Pavia, Italy).
In addition to Alternaria sp., experiments were also carried out on the fungus Botrytis caroliniana.
(§1) The fungal strains were maintained on potato dextrose agar (PDA, Merck kGaA, Darmstadt, Germany) at 4±1° C. and regularly subcultured. Plants of Solanum lycopersicum (cultivar Rio Grande) were sprouted in the greenhouse of the Fondazione dell'Università di Milano Filarete (Milan, Italy) under controlled conditions (T=18/25±1° C. (night/day), humidity ≥90%, photoperiod 16 h light:8 h dark). Determination of in vitro growth inhibition caused by mixtures of CA, BA, CaCl2 and the compositions of the invention was performed by measuring the diameter and calculating the radial growth rate (Kr, mm/h). The diameter growth of the fungi was determined daily, in six repetitions, using the Image J program (Copyright© 1993, 2018, Oracle).
The fungal cultures were carried out in Petri dishes (6 Well Cell Culture Plates, Sigma-Aldrich). The media treated with the compositions of the invention were inoculated with mycelial caps (diameter 7 mm) of growing active fungal strains (e.g., Alternaria sp. and B. caroliniana). The control cultures are carried out on PDA support and compared with those conducted on CA, BA, CaCl2 and on compositions according to the invention. The media was sterilized at 121° C. for 20 min. Incubation was carried out at 27±1° C. for 12 days in a static incubator (Memmert GmbH+Co. KG, Schwabach, Germany).
The results are shown in FIG. 1 (a) PDA control; b) PDA substrate containing citric acid).

S. lycopersicum plants = assay: Phytotoxicity to treated plants in the in vivo experiments; design: species or system Solanum lycopersicum (cultivar Rio Grande); settings: BA 3X (4.8 mM), sprayed 24 hours after infection
Procedure: as §1
S. lycopersicum plants were infected by […] the spores of the pathogenic fungus Alternaria sp. on the attached leaves and stem. Alternaria sp. spores were obtained by dropping 20 mL of sterile H2O into a culture of the fungus in a Petri dish. The inoculum was calculated after enumerating the spores under light microscope using a counting chamber device and the concentration was 3.1×10^6 spores/mL. 24 hours after infection, the attached leaves were sprayed with the compositions of the invention. The plants were infected and untreated, or treated with CA mixtures or with the compositions of the invention 24 hours after infection with Alternaria sp. […]

[Ca+2].[Cl-].[Cl-] [CaCl2, Calcium chloride]
Effect (12 days from cultivation) ([1]; CaCl2 1X (0.45 mM)): +++++ | radial growth rate (Kr) ([1]; CaCl2 1X (0.45 mM)): 0.214 mm/h | Effect (12 days from cultivation) ([1]; CaCl2 2X (0.90 mM)): +++++ | radial growth rate (Kr) ([1]; CaCl2 2X (0.90 mM)): 0.221 mm/h | radial growth rate (Kr) ([1]; CaCl2 3X (1.4 mM)): 0.077 mm/h

OB(O)O [BA, Boric acid]
radial growth rate (Kr) ([1]; BA 1X (1.6 mM)): 0.115 mm/h | radial growth rate (Kr) ([1]; BA 3X (4.8 mM)): 0.051 mm/h | Effect (12 days from cultivation) ([1]; BA 5X (8.0 mM)): − | radial growth rate (Kr) ([1]; BA 5X (8.0 mM)): 0.003 mm/h | Effect (8 days after infection): toxicity for the plant (S. lycopersicum plants): Toxic for the plant

O=C(O)CC(O)(CC(=O)O)C(=O)O [CA, Citric acid]
radial growth rate (Kr) ([1]; CA 1X (0.01M)): 0.099 mm/h | radial growth rate (Kr) ([1]; CA 2X (0.02M)): 0.028 mm/h | radial growth rate (Kr) ([1]; CA 3X (0.03M)): 0.034 mm/h | radial growth rate (Kr) ([1]; CA 5X (0.05M)): 0.012 mm/h | radial growth rate (Kr) ([1]; CA 7X (0.07M)): 0.020 mm/h | Effect (12 days from cultivation) ([1]; CA 10X (0.1M)): − | radial growth rate (Kr) ([1]; CA 10X (0.1M)): 0.000 mm/h | Effect (12 days from cultivation) ([1]; CA 105X (1M)): − | radial growth rate (Kr) ([1]; CA 105X (1M)): 0.000 mm/h
